The source of these data is article PMC10623575, “Discovery of Potent and Selective CB2 Agonists Utilizing a Function-Based Computational Screening Protocol” (ACS Chemical Neuroscience, 2023).

Like-named read-outs stand apart in the source and are kept apart here. Some results are limits rather than exact numbers.

Test [1] deals with CB1 receptor (Homo sapiens, UniProt P21554). Briefly: Calcium mobilization assay, agonist mode, CHO expressing CB1 and Gα16. The test is classed as cell-based. The procedure:
(§1) Chinese hamster ovarian (CHO) cells collected from the American Type Culture Collection were maintained in Ham’s F-12K (Kaighn’s) supplemented with 100 mg/L streptomycin, 100 mg/L penicillin, and 10% fetal bovine serum (FBS) in a humidified atmosphere of 5% CO2 at 37 °C. CHO cells were co-transfected with plasmids encoding CB1 or CB2 and Gα16 by electroporation. To establish stable cell lines, transfected cells were seeded on 10 cm dishes with 40 μg/mL blasticidin and 1 mg/mL G418 in culture medium after 24 h. The selection medium was substituted once every 3 days until colonies formed. A solitary colony was obtained, propagated, and assessed using a calcium mobilization assay to verify the function and expression of the transfected genes.
(§2) 3 × 10^4 cells/well were employed to seed cells onto 96-well plates, which were subsequently incubated throughout the night. […] For antagonist mode, the extra dye was washed out and 50 μL of HBSS with test compounds, DMSO (negative control), or AM630 (positive control) was introduced. […] To be noticed, each experiment has been independently replicated three times, with three repetitions and eight gradients each time.
(§3) The collected data were processed with GraphPad Prism software (GraphPad). […] Means ± SEM were computed utilizing this software. The analyses were evaluated by the Student t test. When the p value is smaller than 0.05, the result is statistically significant.
(In general: Calcium assays in cells follow changes in intracellular calcium, usually with a dye or a luminescent sensor.)

In test [2] the target is T1, CB2 receptor (Homo sapiens, UniProt P34972).
T1 construct: expressed in transfected cells
T1 sequence (P34972 whole entry): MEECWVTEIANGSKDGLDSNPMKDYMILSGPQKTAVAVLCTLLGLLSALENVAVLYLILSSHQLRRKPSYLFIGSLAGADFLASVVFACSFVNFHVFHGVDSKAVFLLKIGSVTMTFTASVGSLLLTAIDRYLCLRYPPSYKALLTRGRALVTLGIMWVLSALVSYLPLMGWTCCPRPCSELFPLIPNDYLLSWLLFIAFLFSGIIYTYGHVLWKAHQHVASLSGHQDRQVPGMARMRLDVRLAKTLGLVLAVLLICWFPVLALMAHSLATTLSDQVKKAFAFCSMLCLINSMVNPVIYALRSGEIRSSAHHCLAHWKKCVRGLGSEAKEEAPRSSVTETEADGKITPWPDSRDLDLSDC
Briefly: Calcium mobilization assay, agonist mode, CHO expressing CB2 and Gα16. The settings on record: for SI, selectivity index for the CB2, SI = EC50(CB1)/EC50(CB2): agonist mode. The test is classed as cell-based. How it is done:
as §1, §2, §3

[3] abbreviates: agonist activity, CHO expressing CB1, mean ± SEM, read-out: CB1 EC50.
[4] abbreviates: agonist activity, CHO expressing CB2, three independent assays, mean ± SEM, read-out: CB2 EC50.
[5] abbreviates: single independent experiment, replicate 1, read-out: CB2 agonist(μM) replicate 1.
The mark [6] stands for this setting: single independent experiment, replicate 2, read-out: CB2 agonist(μM) replicate 2.
Setting [7] is: single independent experiment, replicate 3, read-out: CB2 agonist(μM) replicate3.

Sequence of CB1 receptor (P21554 whole entry): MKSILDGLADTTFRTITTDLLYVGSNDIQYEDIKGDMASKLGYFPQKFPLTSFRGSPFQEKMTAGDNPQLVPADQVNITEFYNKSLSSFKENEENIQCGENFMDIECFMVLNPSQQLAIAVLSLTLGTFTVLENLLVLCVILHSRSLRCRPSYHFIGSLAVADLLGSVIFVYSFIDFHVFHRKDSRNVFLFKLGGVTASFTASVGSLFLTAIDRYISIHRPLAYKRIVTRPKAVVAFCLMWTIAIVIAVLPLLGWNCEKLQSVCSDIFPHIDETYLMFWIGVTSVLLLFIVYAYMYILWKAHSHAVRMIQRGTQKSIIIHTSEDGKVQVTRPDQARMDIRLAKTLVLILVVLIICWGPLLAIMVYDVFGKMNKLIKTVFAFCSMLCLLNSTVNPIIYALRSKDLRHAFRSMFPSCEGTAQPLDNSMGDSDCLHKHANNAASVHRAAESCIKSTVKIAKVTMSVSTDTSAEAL

As for `COc1ccc(C=C2SC(=O)N(CC(C)C)C2=O)cc1OC(=O)c1cccc(Br)c1` [Compound 35, 5-((3-Isobutyl-2,4-dioxothiazolidin-5-ylidene)methyl)-2-methoxyphenyl 3-Bromobenzoate], the EC50 in test [1] (setting [3]) and in test [2] (setting [4]) was greater than 10 µM in each case.

Regarding `CC(C)CN1C(=O)SC(=Cc2cccc(OCc3ccccc3C#N)c2)C1=O` [Compound 26, 2-((3-((3-Isobutyl-2,4-dioxothiazolidin-5-ylidene)methyl)phenoxy)methyl) Benzonitrile], the EC50 in test [1] (setting [3]) and in test [2] (setting [4]) was greater than 10 µM in each case.

As to `CC(C)N1C(=O)SC(=Cc2cccc(OCc3ccccc3C#N)c2)C1=O` [Compound 25, 2-((3-((3-Isopropyl-2,4-dioxothiazolidin-5-ylidene)methyl)phenoxy)methyl) Benzonitrile], the EC50 in test [1] (setting [3]) and in test [2] (setting [4]) was greater than 10 µM each time.

Turning to `COc1ccc(C=C2SC(=O)N(CC(C)C)C2=O)cc1OC(=O)c1ccc(CCl)cc1` [Compound 36, 5-((3-Isobutyl-2,4-dioxothiazolidin-5-ylidene)methyl)-2-methoxyphenyl 4-(Chloromethyl)benzoate], the EC50 in test [1] (setting [3]) and in test [2] (setting [4]) was greater than 10 µM throughout.

As for `CCCCCCCC(=O)Oc1ccccc1C=C1SC(=O)N(CC(C)C)C1=O` [Compound 14, 2-((3-Isobutyl-2,4-dioxothiazolidin-5-ylidene)methyl) Phenyl Octanoate], the EC50 in test [1] (setting [3]) and in test [2] (setting [4]) was greater than 10 µM each time.

Turning to `CCCCCCCC(=O)Oc1ccccc1/C=C1\SC(=O)N(C(C)C)C1=O` [Compound 20, 2-((3-Isopropyl-2,4-dioxothiazolidin-5-ylidene) Methyl) Phenyl Octanoate], the EC50 in test [1] (setting [3]) and in test [2] (setting [4]) was greater than 10 µM in each case.

In the case of `CC(C)N1C(=O)SC(=Cc2ccccc2OCCN2CCOCC2)C1=O` [Compound 8, 3-Isopropyl-5-(2-(2-morpholinoethoxy)benzylidene) Thiazolidine-2,4-dione], the EC50 in test [1] (CB1 EC50, agonist activity, CHO expressing CB1, mean ± SEM) is 0.75 ± 0.48 µM; in test [1] (CB1 agonist(μM) replicate 1, single independent experiment, replicate 1) it was 0.455 µM; in test [1] (CB1 agonist(μM) replicate 2, single independent experiment, replicate 2), 0.109 µM; in test [1] (CB1 agonist(μM) replicate3, single independent experiment, replicate 3), 1.7 µM; in test [2] (CB2 EC50, agonist activity, CHO expressing CB2, three independent assays, mean ± SEM), 0.09 ± 0.07 µM; in test [2] (CB2 agonist(μM) replicate 1, single independent experiment, replicate 1) it was 0.227 µM. Moreover, the EC50 in test [2] (CB2 agonist(μM) replicate 2, single independent experiment, replicate 2) was 0.026 µM; in test [2] (CB2 agonist(μM) replicate3, single independent experiment, replicate 3) it was 0.022 µM. Besides, in test [2], the “SI, selectivity index for the CB2, SI = EC50(CB1)/EC50(CB2)” value (“SI, selectivity index for the CB2” for short) came out at 8.

Turning to `CCCCN1C(=O)SC(=Cc2ccccc2OCc2ccccc2C#N)C1=O` [Compound 4, 2-((2-((3-Butyl-2,4-dioxothiazolidin-5-ylidene)methyl)phenoxy)methyl)benzo Nitrile], the EC50 in test [1] (setting [3]) and in test [2] (setting [4]) was greater than 10 µM in each case.

Take `CC(C)N1C(=O)SC(=Cc2ccccc2OC(=O)C2CC2)C1=O` [Compound 22, 2-((3-Isopropyl-2,4-dioxothiazolidin-5-ylidene)methyl)phenyl Cyclopropane Carboxylate]: the EC50 in test [1] (setting [3]) is greater than 10 µM; in test [2] (setting [4]), 4.12 ± 1.31 µM; in test [2] (setting [5]) it was 2.19 µM; in test [2] (setting [6]), 6.61 µM; in test [2] (setting [7]), 3.56 µM. The “SI, selectivity index for the CB2” value in test [2] is recorded as greater than 2.

With `CC(C)N1C(=O)SC(=Cc2ccccc2OC(=O)C2CCCCCC2)C1=O` [Compound 23, 2-((3-Isopropyl-2,4-dioxothiazolidin-5-ylidene)methyl)phenyl Cycloheptane Carboxylate], the EC50 in test [1] (setting [3]) is greater than 10 µM; in test [2] (setting [4]), 0.82 ± 0.41 µM; in test [2] (setting [5]), 0.225 µM; in test [2] (setting [6]), 0.638 µM; in test [2] (setting [7]), 1.6 µM. Also, the “SI, selectivity index for the CB2” value in test [2] is reported as greater than 12.

`CC(C)N1C(=O)SC(=Cc2ccccc2OC(=O)C(C)(C)CCl)C1=O` [Compound 21, 2-((3-Isopropyl-2,4-dioxothiazolidin-5-ylidene)methyl)phenyl 3-Chloro-2,2-dimethylpropanoate]: the EC50 in test [1] (setting [3]) was greater than 10 µM; in test [2] (setting [4]), 2.33 ± 0.45 µM; in test [2] (setting [5]), 1.46 µM; in test [2] (setting [6]), 2.61 µM; in test [2] (setting [7]), 2.93 µM. The “SI, selectivity index for the CB2” value in test [2] is greater than 4.

For `COc1ccc(/C=C2\SC(=O)N(CC(C)C)C2=O)cc1OC(=O)C12CC3CC(CC(C3)C1)C2` [Compound 37, 5-((3-Isobutyl-2,4-dioxothiazolidin-5-ylidene)methyl)-2-methoxyphenyl (3r, 5r,7r)-adamantane-1-carboxylate], the EC50 in test [1] (setting [3]) and in test [2] (setting [4]) was greater than 10 µM each time.

`CC(C)CN1C(=O)SC(=Cc2ccccc2OC(=O)c2ccccc2F)C1=O` [Compound 13, 2-((3-Isobutyl-2,4-dioxothiazolidin-5-ylidene)methyl)phenyl 2-Fluorobenzoate]: the EC50 in test [1] (setting [3]) is greater than 10 µM; in test [2] (setting [4]), 1.78 ± 0.25 µM; in test [2] (setting [5]), 1.66 µM; in test [2] (setting [6]), 2.26 µM; in test [2] (setting [7]) it was 1.44 µM. Further, the “SI, selectivity index for the CB2” value in test [2] is recorded as greater than 5.

Regarding `CC(C)N1C(=O)S/C(=C\c2ccccc2OC(=O)C23CC4CC(CC(C4)C2)C3)C1=O` [Compound 19, 2-((3-Isopropyl-2,4-dioxothiazolidin-5-ylidene) Methyl) Phenyl (3r,5r,7r)-Adamantane-1-carboxylate], the EC50 in test [1] (setting [3]) and in test [2] (setting [4]) was greater than 10 µM in each case.

Consider `CC(C)CN1C(=O)SC(=Cc2ccccc2OCc2ccccc2C#N)C1=O` [Compound 2, 2-((2-((3-Isobutyl-2,4-dioxothiazolidin-5-ylidene)methyl)phenoxy)methyl) Benzonitrile], for which the EC50 in test [1] (setting [3]) is greater than 10 µM; in test [2] (setting [4]) it was 3.22 ± 2.67 µM; in test [2] (setting [5]), 0.43 µM; in test [2] (setting [6]), 8.56 µM; in test [2] (setting [7]), 0.68 µM. Also, the “SI, selectivity index for the CB2” value in test [2] is listed as greater than 3.

In the case of `CC(C)N1C(=O)SC(=Cc2ccccc2OC(=O)N2CCOCC2)C1=O` [Compound 17, 2-((3-Isopropyl-2,4-dioxothiazolidin-5-ylidene)methyl)phenyl Morpholine-4-carboxylate], the EC50 in test [1] (setting [3]) was greater than 10 µM; in test [2] (setting [4]), 0.66 ± 0.34 µM; in test [2] (setting [5]) it was 0.166 µM; in test [2] (setting [6]) it was 1.31 µM; in test [2] (setting [7]) it was 0.489 µM. Further, in test [2], the “SI, selectivity index for the CB2” value is recorded as greater than 15.

As for `CC(C)CN1C(=O)SC(=Cc2ccccc2OCc2ccccc2F)C1=O` [Compound 10, 5-(2-((2-Fluorobenzyl)oxy)benzylidene)-3-isobutylthiazolidine-2,4-dione], the EC50 in test [1] (setting [3]) is greater than 10 µM; in test [2] (setting [4]), 1.6 ± 0.21 µM; in test [2] (setting [5]), 1.78 µM; in test [2] (setting [6]), 1.18 µM; in test [2] (setting [7]), 1.83 µM. In addition, in test [2], the “SI, selectivity index for the CB2” value is given as greater than 6.

On to `CC(C)CN1C(=O)SC(=Cc2ccccc2OC(=O)N2CCOCC2)C1=O` [Compound 15, 2-((3-Isobutyl-2,4-dioxothiazolidin-5-ylidene)methyl)phenyl Morpholine-4-carboxylate], for which the EC50 in test [1] (setting [3]) is greater than 10 µM; in test [2] (setting [4]), 1.58 ± 1.12 µM; in test [2] (setting [5]), 0.486 µM; in test [2] (setting [6]) it was 3.82 µM; in test [2] (setting [7]), 0.43 µM. In test [2], the “SI, selectivity index for the CB2” value was greater than 6.
